Assay results taken from paper PMC4731787, “Structural basis for the recognition of two consecutive mutually interacting DPF motifs by the SGIP1 μ homology domain” (Scientific Reports, 2016).

Columns and labels:
[1] = molecular target: T1, SGIP1 μHD (residues 552 to 828) (Homo sapiens, UniProt Q9BQI5); assay: ITC of Eps15 fragments with the SGIP1 μHD; assay type: binding; conditions: for -TΔS / ΔG / ΔH: 25 °C; for -TΔS / ΔG / ΔH / N (binding ratio of Eps15 fragment to μHD): μHD in cell titrated with fragment, single-site model; for ΔH / N (binding ratio of Eps15 fragment to μHD): ± 68.3% confidence interval
T1 construct: the SGIP1 μHD (residues 552 to 828); GST (N, cleaved yes); made in house; host or cells: Escherichia coli BL21-Gold (DE3) or Rosetta2
T1 sequence (Q9BQI5 552-828): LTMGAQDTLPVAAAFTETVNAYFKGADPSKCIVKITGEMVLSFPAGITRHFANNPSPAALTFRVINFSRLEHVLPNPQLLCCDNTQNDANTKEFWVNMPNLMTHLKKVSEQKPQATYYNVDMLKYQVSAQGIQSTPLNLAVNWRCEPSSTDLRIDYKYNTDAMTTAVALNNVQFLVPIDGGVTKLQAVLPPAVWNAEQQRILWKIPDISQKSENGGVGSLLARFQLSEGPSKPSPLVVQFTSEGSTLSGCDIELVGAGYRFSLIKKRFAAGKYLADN
Summary of the method: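 Isothermal titration calorimetry was run at 25 °C in 50 mM Tris-HCl pH 8.0, 50 mM NaCl, mostly titrating Eps15 fragments or peptides into μHD protein in the cell (25 injections, 4 min apart). Some runs reversed the titration direction. Duplicate runs were globally fitted to single- or two-site models, with N derived from incompetent-fraction parameters.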

[2] = molecular target: T2, SGIP1 µHD N670D (Homo sapiens, UniProt Q9BQI5, N670D); assay: ITC of Eps15 fragments with the SGIP1 μHD N670D mutant; assay type: binding
T2 construct: the SGIP1 μHD (residues 552 to 828); GST (N, cleaved yes); made in house; host or cells: Escherichia coli (as for the wild-type μHD)
T2 sequence (Q9BQI5 552-828 N670D): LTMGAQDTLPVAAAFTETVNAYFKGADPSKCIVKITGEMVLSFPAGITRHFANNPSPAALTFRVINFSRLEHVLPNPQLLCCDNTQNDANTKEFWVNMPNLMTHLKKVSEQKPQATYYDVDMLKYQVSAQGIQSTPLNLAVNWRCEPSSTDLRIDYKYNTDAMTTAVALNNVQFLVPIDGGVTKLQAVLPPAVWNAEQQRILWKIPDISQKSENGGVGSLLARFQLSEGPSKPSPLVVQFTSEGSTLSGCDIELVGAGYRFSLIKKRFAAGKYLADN
Procedure: (§1) For the majority of the ITC experiments, the SGIP1 μHD, its mutants, or the FCHo1 μHD, in 50 mM Tris-HCl buffer (pH 8.0) containing 50 mM NaCl, was loaded in the sample cell, in a volume of 1.42 ml, and titrated with various Eps15-derived fragments or peptides in the same buffer, with an initial 5 μl injection and subsequent 10 μl injections, for a total of 25 injections. The titrations were performed while the samples were stirred at 310 r.p.m. at 25 °C. Each injection was followed by an interval of 4 min, to allow baseline stabilization. For the other ITC experiments indicated in Supplementary Table 2, the Eps15-derived fragments or peptides in the sample cell were titrated with the SGIP1 or FCHo1 μHD. All ITC experiments were performed on a VP-ITC microcalorimeter (MicroCal, LLC) and repeated twice, and the data were processed with the program NITPIC[42]. The two data sets from each ITC experiment were analyzed by global weighted least-squares fitting with the program SEDPHAT[43]. Figures for the ITC data were created with the program GUSSI (http://biophysics.swmed.edu/MBR/software.html). To obtain the values of the traditional stoichiometric parameter N in our ITC data analyses (Supplementary Table 2), we used the values of the parameters of the incompetent fractions of proteins and ligands. […]

[3] = molecular target: T3, SGIP1 µHD K816E (Homo sapiens, UniProt Q9BQI5, K816E); assay: ITC of Eps15 fragments with the SGIP1 μHD K816E mutant; assay type: binding
T3 construct: the SGIP1 μHD (residues 552 to 828); GST (N, cleaved yes); made in house; host or cells: Escherichia coli (as for the wild-type μHD)
T3 sequence (Q9BQI5 552-828 K816E): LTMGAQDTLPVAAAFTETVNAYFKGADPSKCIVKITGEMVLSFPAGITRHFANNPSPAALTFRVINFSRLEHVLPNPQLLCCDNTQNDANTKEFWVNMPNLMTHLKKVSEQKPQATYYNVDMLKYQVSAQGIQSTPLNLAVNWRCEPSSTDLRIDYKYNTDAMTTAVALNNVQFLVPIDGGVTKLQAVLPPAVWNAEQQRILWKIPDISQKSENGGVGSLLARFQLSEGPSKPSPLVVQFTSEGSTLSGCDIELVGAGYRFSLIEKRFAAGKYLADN
Procedure: as §1

[4] = molecular target: T4, FCHo1 µHD (residues 623 to 889) (Homo sapiens, UniProt O14526); assay: ITC of Eps15 fragments with the FCHo1 μHD; assay type: binding; conditions: FCHo1 μHD in cell titrated with fragment, single-site model
T4 construct: GST (N, cleaved yes); made in house; host or cells: Escherichia coli (as for the SGIP1 μHD)
T4 sequence (O14526 623-889): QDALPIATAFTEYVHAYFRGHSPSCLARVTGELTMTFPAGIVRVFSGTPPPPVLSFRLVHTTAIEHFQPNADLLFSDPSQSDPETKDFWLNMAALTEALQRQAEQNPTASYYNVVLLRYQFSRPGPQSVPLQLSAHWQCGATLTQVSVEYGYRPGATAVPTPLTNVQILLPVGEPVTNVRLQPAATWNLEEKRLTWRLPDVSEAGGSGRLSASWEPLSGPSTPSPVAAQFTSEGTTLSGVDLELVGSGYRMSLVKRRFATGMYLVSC
Procedure: For the majority of the ITC experiments, the SGIP1 μHD, its mutants, or the FCHo1 μHD, in 50 mM Tris-HCl buffer (pH 8.0) containing 50 mM NaCl, was loaded in the sample cell, in a volume of 1.42 ml, and titrated with various Eps15-derived fragments or peptides in the same buffer, with an initial 5 μl injection and subsequent 10 μl injections, for a total of 25 injections. The titrations were performed while the samples were stirred at 310 r.p.m. at 25 °C. Each injection was followed by an interval of 4 min, to allow baseline stabilization. For the other ITC experiments indicated in Supplementary Table 2, the Eps15-derived fragments or peptides in the sample cell were titrated with the SGIP1 or FCHo1 μHD. All ITC experiments were performed on a VP-ITC microcalorimeter (MicroCal, LLC) and repeated twice, and the data were processed with the program NITPIC[42]. The two data sets from each ITC experiment were analyzed by global weighted least-squares fitting with the program SEDPHAT[43]. Figures for the ITC data were created with the program GUSSI (http://biophysics.swmed.edu/MBR/software.html). To obtain the values of the traditional stoichiometric parameter N in our ITC data analyses (Supplementary Table 2), we used the values of the parameters of the incompetent fractions of proteins and ligands. […] The values of the incompetent fractions are between 0 and 1, whereas the other parameter affecting the traditional parameter N, the number of sites, was fixed as 1 and 2, for the single- and two-site models, respectively. Thus, in the two-site model, the values of N for the first and second sites are identical in our ITC data analyses (Supplementary Table 2).

[5] = test system: human full-length FCHo1; conditions: pull-down assay; lower than the other longer fragments with more DPF motifs tested in the same reference; ref Umasankar et al.23; cited from earlier work
From the text: page 12: Supplementary Table 3 Regions of Eps15, Eps15R, and Dab2, involved in binding to the µHDs of SGIP1/ SGIP1α/FCHo1/FCHo2 from various sources. µHD-containing protein µHD-binding Region involved in binding Number of DPF motifs Method used to confirm binding Strength of Reference protein to the µHD in the binding region affinity mouse SGIP1 µHD (aa501–807) Eps15 a residues 594–896 15 b pull-down assay (competition) unknown Reider et al. 8 mouse SGIP1α µHD (aa561–854) rat Eps15 residues 593–894 15 pull-down assay unknown Uezu et al.19 mouse SGIP1α µHD (aa428–854) rat Eps15 residues 636–747 ...

[6] = 25 °C, 50 mM Tris-HCl pH 8.0, 50 mM NaCl, mutant μHD in cell titrated with fragment, two runs

| Substance | -TΔS [1] [kcal/mol] | ΔG [1] [kcal/mol] | ΔH [1] [kcal/mol] | N (binding ratio of Eps15 fragment to μHD) [1] | binding to SGIP1 μHD with Asn670 replaced by Asp (in words) [2] | Kd [2, 6] | binding to the SGIP1 μHD (in words) [1] | binding to SGIP1 μHD with Lys816 replaced by Glu (in words) [3] | Kd [3, 6] | Kd ([4]; 25 °C, 50 mM Tris-HCl pH 8.0, 50 mM NaCl, global fit of two runs, ± 68.3% confidence interval) [µM] | -TΔS ([4]; 25 °C) [kcal/mol] | ΔG ([4]; 25 °C) [kcal/mol] | ΔH ([4]; 25 °C, ± 68.3% confidence interval) [kcal/mol] | N (binding ratio of Eps15 fragment to FCHo1 μHD) ([4]; ± 68.3% confidence interval) | Strength of affinity [5] |
| --- | --- | --- | --- | --- | --- | --- | --- | --- | --- | --- | --- | --- | --- | --- | --- |
| Ac-YDPFGGDPFKG-NH2 [Eps15-640–649] | 2.106 | -6.166 | -8.272 ± 0.679 | 0.66 ± 0.03 | abolished the binding | below detection limit |  |  |  |  |  |  |  |  |  |
| Ac-YDPFGGDPFKGSDPFA-NH2 [Eps15-640–654] | 3.482 | -7.559 | -11.041 ± 0.191 | 0.66 ± 0.01 |  |  | slightly stronger affinity than Eps15-622–637 | abolished the binding | below detection limit | 5.5 ± 1.4 | 0.748 | -7.175 | -7.923 ± 1.098 | 0.64 ± 0.06 |  |
| Eps15 residues 595–636: Eps15 region of a previous report, first DPF motifs of the high-affinity site, source assumed human (SKEEDPFNVDSSSLTGPVADTNLDFFQSDPFVGSDPFKDDPF; UniProt P42566 595-636, looked up, fragment) |  |  |  |  |  |  |  |  |  |  |  |  |  |  | low |
